Experimental findings from patent US9040527B2, “Pyrimidinediamine kinase inhibitors” (Rigel Pharmaceuticals, Inc., priority 2008, dated 2015) are described below.

What is called IC50 is the point on the concentration scale where inhibition reaches its midpoint.

Experiment [1] concerns the target T1, PLK1 (Homo sapiens, UniProt P53350). The experiment in a line: In vitro PLK1 ELISA assay (biochemical). Details: purchased Cell Signalling 7728. An outline of the steps:
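Commercial PLK1 phosphorylates neutravidin-captured biotinylated CHK2 peptide for 45 min at room temperature in HEPES pH 7.2 with Mg2+/Mn2+/DTT, compounds at 10 μM to 0.005 μM. Phospho-CHK2(T68) antibody plus HRP secondary gives chemiluminescent read-out used for IC50.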
A general note: ELISA stands for enzyme-linked immunosorbent assay.

The target in experiment [2] is T1, PLK1. Kind of experiment: Cellular PLK1 assay in K562 cells overexpressing CDC25C. It counts as cell-based. As to conditions: nocodazole arrested, cdc25c p-Ser198 readout. Details: endogenous in cells; host or cells: K562 (human chronic myelogenous leukemia) overexpressing CDC25C, nocodazole-arrested. The method, then: Inhibition of PLK1 was measured by quantifying phosphorylation of PLK1 substrates using chemiluminescent and fluorogenic probes. The protocols for these assays are provided below.
1. Culturing of K562 Cells
Human chronic myelogenous leukemia K562 cells (American Tissue Culture Collection) overexpressing CDC25C, were grown in Growth Medium having the following composition: Iscove Dulbecco's Modified Eagle's Medium (“Iscove DMEM”, Mediatech/Cellgro, Cat. #10-013-CV), 10% Fetal Bovine Serum (“FBS”, SAFC Biosciences, Cat. #12106-500M), and 1% penicillin/streptomycin (“pen-strep”, Mediatech/Cellgro, Cat. #30-002-CI). The cells were plated in 96 well round bottom tissue culture plates (Fisher, Costar* Cell Culture plates, Cat. #07-200-95) at 100,000 cells per 50 μL of Growth Medium per well. Nocodazole (Sigma, Cat. # M1404) was added to the growth media to arrest the cells in the G2 or M phase, at 333 nM concentration. The cells were incubated with nocodazole for 18 hours at 37° C. prior to addition of tested compounds.
2. Treatment of Cells with the Tested Compounds
Solutions of tested compounds in DMSO at different concentrations were prepared using serial dilutions. Each compound was tested at 8 concentration points, 10 μM, 3.3 μM, 1.11 μM, 0.37 μM, 0.12 μM, 0.04 μM, 0.014 μM, 0.005 μM, duplicate replicates.
Two controls were performed: “DMSO alone” control in which nocodazole and DMSO were present but no compounds were added, and “nocodazole alone” control, in which only nocodazole was present, but neither DMSO nor compounds were added.
The solutions of compounds were prepared by diluting 10 mM compound 1:1 in DMSO (5 μL 10 mM compound and 5 μL DMSO), followed by 1:3 serial dilutions of compound in DMSO performed by diluting 3 μL of higher concentration compound solution serially into 6 μL DMSO to give 3-fold dilutions. Next, 3 μL of each compound solution at each concentration was transferred to 750 μL of Growth Medium. In “DMSO alone” control 3 μL of DMSO alone was added to 750 μL of Growth Medium.
After the diluted compounds were mixed well in the Growth Medium, 50 μL of each compound solution in DMSO/Growth Medium was transferred to each well of the 96-plate containing cells in 50 μL of Growth Medium/Nocodazole.
The cells and compounds were incubated for 120 minutes at 37° C., in an atmosphere containing 5% CO2.
3. Fixation and Permeabilization of the Cells
After the cells were incubated with compounds, the cells were spun down at 1,000 rpm for 5 minutes at 4° C. and supernatants were removed by flicking the plates. Cells were then washed with 200 μl of ice cold PBS, spun down again and supernatants removed. Cells were then fixed and permeabilized by addition of 100 μL/well of Fixation and Permeabilization Solution (1× buffer provided in BD Biosciences Cytofix/Cytoperm™ Fixation/Permeabilization kit, Cat. #554714) and incubation for 20 minutes at room temperature. The fixative was then removed by centrifugation (5 minutes at 2,000 rpm), and plates were flicked to remove the fixative and washed twice, each time with 200 μL/well BD Perm/Wash buffer (10× concentrate provided in BD Biosciences Cytofix/Cytoperm™ Fixation/Permeabilization kit, Cat. #554714, 1× buffer prepared by dilution in distilled H2O).
Cells were spun down at 1,000 rpm for 5 minutes at 4° C. Supernatants were removed by flicking the plates. A solution of a primary antibody specific for cdc25cp-Ser198 was prepared by diluting Rabbit cdc25c (Ser198) antibody (Cell Signaling, #9529L) 1:50 in a Fluorescence Activated Cell Sorting (“FACS”) Buffer (2% FBS in PBS). The cell pellets were resuspended in 50 μL of the primary antibody solution. 50 μL of FACS buffer was added to unstained controls. Staining was allowed to proceed overnight at room temperature.
The plates were then washed by addition of 200 μL of FACS Buffer to each well, were centrifuged and the supernatant was removed. […]

[3] abbreviates: ELISA, CHK2-derived peptide substrate, read-out: PLK1 IC50 (μM) biochemical assay.
The mark [4] stands for this setting: read-out: IC50 in biochemical in vitro PLK1 ELISA assay (less than 10 μM).
Setting [5] is: read-out: IC50 in biochemical ELISA assay (less than 0.01 μM).

T1 sequence (P53350 whole entry): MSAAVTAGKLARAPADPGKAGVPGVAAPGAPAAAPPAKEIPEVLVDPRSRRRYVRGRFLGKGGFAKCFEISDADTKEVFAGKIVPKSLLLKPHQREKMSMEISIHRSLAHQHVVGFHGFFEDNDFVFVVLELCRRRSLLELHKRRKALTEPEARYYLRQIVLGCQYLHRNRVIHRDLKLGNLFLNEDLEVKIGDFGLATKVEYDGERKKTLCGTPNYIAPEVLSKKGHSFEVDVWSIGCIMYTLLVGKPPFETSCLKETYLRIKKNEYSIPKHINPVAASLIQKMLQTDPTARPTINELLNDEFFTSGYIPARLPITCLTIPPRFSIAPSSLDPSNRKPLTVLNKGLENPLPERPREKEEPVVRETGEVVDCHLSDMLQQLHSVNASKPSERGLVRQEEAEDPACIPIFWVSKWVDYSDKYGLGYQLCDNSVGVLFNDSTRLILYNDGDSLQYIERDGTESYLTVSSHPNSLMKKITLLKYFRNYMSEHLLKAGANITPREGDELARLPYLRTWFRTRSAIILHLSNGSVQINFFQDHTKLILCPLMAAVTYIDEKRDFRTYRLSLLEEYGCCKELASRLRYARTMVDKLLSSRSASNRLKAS

In the case of `CC(C)Oc1ccc(N2CCN(C)CC2)cc1Nc1ncc(F)c(Nc2ccc3c(n2)NC(=O)CO3)n1` [compound 30, 6-(5-fluoro-2-(2-isopropoxy-5-(4-methylpiperazin-1-yl)phenylamino)pyrimidin-4-ylamino)-2H-pyrido[3,2-b][1,4]oxazin-3(4H)-one], the results for the IC50 on PLK1 [1] (setting [3]), at PLK1 [1] (setting [4]) and against PLK1 [2] were under 0.5 µM, under 10 µM and under 0.5 µM, respectively.

With `CCCN1C(=O)COc2ccc(Nc3nc(Nc4ccc(N5CC6CC5CN6S(C)(=O)=O)c(C)c4)ncc3F)nc21` (stereo not shown) [compound 31, 6-(5-fluoro-2-(3-methyl-4-(5-(methylsulfonyl)-2,5-diazabicyclo[2.2.1]heptan-2-yl)phenylamino)pyrimidin-4-ylamino)-4-propyl-2H-pyrido[3,2-b][1,4]oxazin-3(4H)-one], the half-maximal inhibitory concentration (IC50) on PLK1 [1] (setting [3]) is at least 10 µM; on PLK1 [2], 0.5 to 5 µM.

With `CCCN1C(=O)COc2ccc(Nc3nc(Nc4ccc(N5CC6CC5CN6S(C)(=O)=O)c(C)c4)ncc3C)nc21` (stereo not shown) [compound 32, 6-(5-methyl-2-(3-methyl-4-(5-(methylsulfonyl)-2,5-diazabicyclo[2.2.1]heptan-2-yl)phenylamino)pyrimidin-4-ylamino)-4-propyl-2H-pyrido[3,2-b][1,4]oxazin-3(4H)-one], the values for the concentration for half-maximal inhibition (IC50) at PLK1 [1] (setting [3]), at PLK1 [1] (setting [4]) and against PLK1 [2] were 0.5 to 5 µM, under 10 µM and 0.5 to 5 µM, respectively.

As to `CCCN1CCOc2ccc(Nc3nc(Nc4ccc(N5CC6CC5CN6S(C)(=O)=O)c(C)c4)ncc3C)nc21` (stereo not shown) [compound 33, 5-methyl-N2-(3-methyl-4-(5-(methylsulfonyl)-2,5-diazabicyclo[2.2.1]heptan-2-yl)phenyl)-N4-(4-propyl-3,4-dihydro-2H-pyrido[3,2-b][1,4]oxazin-6-yl)pyrimidine-2,4-diamine], the IC50 is under 0.5 µM at PLK1 [1] (setting [3]), under 10 µM at PLK1 [1] (setting [4]) and 0.5 to 5 µM against PLK1 [2].

On to `CN1CCN(c2ccc(C3CC3)c(Nc3ncc(F)c(Nc4ccc5c(n4)NCCO5)n3)c2)CC1` [compound 34, N2-(2-cyclopropyl-5-(4-methylpiperazin-1-yl)phenyl)-N4-(3,4-dihydro-2H-pyrido[3,2-b][1,4]oxazin-6-yl)-5-fluoropyrimidine-2,4-diamine], for which the IC50 was under 0.5 µM on PLK1 [1] (setting [3]), under 10 µM on PLK1 [1] (setting [4]) and under 0.5 µM on PLK1 [2].

Take `CCCN1C(=O)COc2ccc(Nc3nc(Nc4ccc(N5CC6CC5CN6C(C)=O)c(C)c4)ncc3F)nc21` (stereo not shown) [compound 35, 6-(2-(4-(5-acetyl-2,5-diazabicyclo[2.2.1]heptan-2-yl)-3-methylphenylamino)-5-fluoropyrimidin-4-ylamino)-4-propyl-2H-pyrido[3,2-b][1,4]oxazin-3(4H)-one]: the figures for the IC50 on PLK1 [1] (setting [3]), at PLK1 [1] (setting [4]) and against PLK1 [2] were under 0.5 µM, under 10 µM and 0.5 to 5 µM, respectively.

`Cc1ccc(Nc2ncc(F)c(Nc3ccc4c(n3)NCCO4)n2)cc1N1CC2CC1CN2C` (stereo not shown) [compound 36, N4-(3,4-dihydro-2H-pyrido[3,2-b][1,4]oxazin-6-yl)-5-fluoro-N2-(4-methyl-3-(5-methyl-2,5-diazabicyclo[2.2.1]heptan-2-yl)phenyl)pyrimidine-2,4-diamine]: the half-inhibitory concentration (IC50) is under 0.5 µM on PLK1 [1] (setting [3]), under 0.01 µM on PLK1 [1] (setting [5]), under 10 µM on PLK1 [1] (setting [4]) and 0.5 to 5 µM against PLK1 [2].

For `CCCN1CCOc2ccc(Nc3nc(Nc4ccc(N5CC6CC5CN6C(C)=O)c(C)c4)ncc3F)nc21` (stereo not shown) [compound 37, 1-(5-(4-(5-fluoro-4-(4-propyl-3,4-dihydro-2H-pyrido[3,2-b][1,4]oxazin-6-ylamino)pyrimidin-2-ylamino)-2-methyl-phenyl)-2,5-diaza-bicyclo[2.2.1]heptan-2-yl)ethanone], the IC50 at PLK1 [1] (setting [3]) was 0.5 to 5 µM; on PLK1 [1] (setting [4]) it was under 10 µM; at PLK1 [2], 0.5 to 5 µM.

Consider `CCCN1C(=O)COc2ccc(Nc3nc(Nc4ccc(N5CC6CC5CN6C(C)=O)c(C)c4)ncc3C)nc21` (stereo not shown) [compound 38, 6-(2-(4-(5-acetyl-2,5-diazabicyclo[2.2.1]heptan-2-yl)-3-methylphenyl-amino)-5-methyl-pyrimidin-4-ylamino)-4-propyl-2H-pyrido[3,2-b][1,4]oxazin-3(4H)-one], for which the IC50 at PLK1 [1] (setting [3]) was under 0.5 µM; on PLK1 [1] (setting [4]) it was under 10 µM; against PLK1 [2], 0.5 to 5 µM.

`CCCN1CCOc2ccc(Nc3nc(Nc4ccc(N5CC6CC5CN6C(C)=O)c(C)c4)ncc3C)nc21` (stereo not shown) [compound 39, 1-(5-(2-methyl-4-(5-methyl-4-(4-propyl-3,4-dihydro-2H-pyrido[3,2-b][1,4]oxazin-6-ylamino)pyrimidin-2-ylamino)phenyl)-2,5-diazabicyclo[2.2.1]heptan-2-yl)ethanone]: the half-inhibitory concentration (IC50) was 0.5 to 5 µM at PLK1 [1] (setting [3]), under 10 µM at PLK1 [1] (setting [4]) and 0.5 to 5 µM against PLK1 [2].

In the case of `CN1CC2CC1CN2c1cccc(Nc2ncc(F)c(Nc3ccc4c(n3)NC(=O)CO4)n2)c1` (stereo not shown) [compound 41, 6-(5-fluoro-2-(3-(5-methyl-2,5-diaza-bicyclo[2.2.1]heptan-2-yl)phenylamino)pyrimidin-4-ylamino)-2H-pyrido[3,2-b][1,4]oxazin-3(4H)-one], the IC50 is under 0.5 µM on PLK1 [1] (setting [3]), under 10 µM at PLK1 [1] (setting [4]) and under 0.5 µM against PLK1 [2].

Take `CN1CC2CC1CN2c1cccc(Nc2ncc(F)c(Nc3ccc4c(n3)NCCO4)n2)c1` (stereo not shown) [compound 42, N4-(3,4-dihydro-2H-pyrido[3,2-b][1,4]oxazin-6-yl)-5-fluoro-N2-(3-(5-methyl-2,5-diazabicyclo[2.2.1]heptan-2-yl)phenyl)pyrimidine-2,4-diamine]: the 50% inhibitory concentration (IC50) on PLK1 [1] (setting [3]) was under 0.5 µM; at PLK1 [1] (setting [5]) it was under 0.01 µM; at PLK1 [1] (setting [4]) it was under 10 µM; at PLK1 [2] it was under 0.5 µM.

With `CC(C)c1ccc(N2CCN(C)CC2)cc1Nc1ncc(F)c(Nc2ccc3c(n2)NC(=O)CO3)n1` [compound 43, 6-(5-fluoro-2-(2-isopropyl-5-(4-methylpiperazin-1-yl)phenylamino)pyrimidin-4-ylamnino)-2H-pyrido[3,2-b][1,4]oxazin-3(4H)-one], the concentration for half-maximal inhibition (IC50) at PLK1 [1] (setting [3]) is under 0.5 µM; on PLK1 [1] (setting [4]), under 10 µM; on PLK1 [2] it was under 0.5 µM.

Take `CC(C)c1cc(Nc2ncc(F)c(Nc3ccc4c(n3)NC(=O)CO4)n2)cc(N2CCN(C)CC2)c1` [compound 44, 6-(5-fluoro-2-(3-isopropyl-5-(4-methylpiperazin-1-yl)phenylamino)pyrimidin-4-ylamino)-2H-pyrido[3,2-b][1,4]oxazin-3(4H)-one]: the IC50 on PLK1 [1] (setting [3]) is under 0.5 µM; on PLK1 [1] (setting [4]), under 10 µM; on PLK1 [2] it was at least 10 µM.

As to `CCOc1ccc(N2CCN(C)CC2)cc1Nc1ncc(F)c(Nc2ccc3c(n2)NCCO3)n1` [compound 45, N4-(3,4-dihydro-2H-pyrido[3,2-b][1,4]oxazin-6-yl)-N2-(2-ethoxy-5-(4-methylpiperazin-1-yl)phenyl)-5-fluoro-pyrimidine-2,4-diamine], the results for the half-maximal inhibitory concentration (IC50) at PLK1 [1] (setting [3]), at PLK1 [1] (setting [4]) and against PLK1 [2] were under 0.5 µM, under 10 µM and under 0.5 µM, respectively.
